According to US8759534B2, “Trimethine cyanine and its use” (Orgchem Technologies, Inc., priority 2011, dated 2014):

Assay: Solubility in TFP
Format: physicochemical
Conditions: solvent TFP (2,2,3,3-tetrafluoro-1-propanol)

| Compound | Solubility (in TFP) |
| --- | --- |
| CN1/C(=C/C=C/C2=[N+](C)c3ccc4ccccc4c3C2(C)Cc2ccc(Oc3ccc(CC4(C)C(/C=C/C=C5/N(C)c6ccc7ccccc7c6C5(C)Cc5ccccc5)=[N+](C)c5ccc6ccccc6c54)cc3)cc2)C(C)(Cc2ccccc2)c2c1ccc1ccccc21 (centres unmarked) [Compound No. 1] | 4.8% |
| CCN1/C(=C/C=C/C2=[N+](C)c3ccc4ccccc4c3C2(C)Cc2ccc(Cc3ccc(CC4(C)C(/C=C/C=C5/N(CC)c6ccc7ccccc7c6C5(C)Cc5ccccc5)=[N+](C)c5ccc6ccccc6c54)cc3)cc2)C(C)(Cc2ccccc2)c2c1ccc1ccccc21 (centres unmarked) [Compound No. 13] | 3.6% |
| CN1/C(=C/C=C/C2=[N+](C)c3ccc4ccccc4c3C2(C)CC=CCC2(C)C(/C=C/C=C3/N(C)c4ccc5ccccc5c4C3(C)Cc3ccccc3)=[N+](C)c3ccc4ccccc4c32)C(C)(Cc2ccccc2)c2c1ccc1ccccc21 (centres unmarked) [Compound No. 26] | 5.3% |
| CN1/C(=C/C=C/C2=[N+](Cc3ccccc3)c3ccc4ccccc4c3C2(C)CC=CCC2(C)C(/C=C/C=C3/N(C)c4ccc5ccccc5c4C3(C)Cc3ccccc3)=[N+](Cc3ccccc3)c3ccc4ccccc4c32)C(C)(Cc2ccccc2)c2c1ccc1ccccc21 (centres unmarked) [Compound No. 29] | 5.3% |
| CCCN1/C(=C/C=C/C2=[N+](CCC(C)C)c3ccc4ccccc4c3C2(C)CC=CCC2(C)C(/C=C/C=C3/N(CCC)c4ccccc4C3(C)C)=[N+](CCC(C)C)c3ccc4ccccc4c32)C(C)(C)c2ccccc21 (centres unmarked) [Compound No. 34] | 4.17% |
